Measurements from ChEMBL document CHEMBL1201862, “PubChem BioAssay data set” (2004).
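Exposure lasted 48 hours, with cells grown in 96-well plates and compounds tested at five concentrations. Abbreviation: GI50, concentration required for 50% inhibition of growth.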 Activity calls are given as the source filed them. Cut-off read from the data, not from the text of the source: active = GI50 up to about 1.1 µM and inactive = higher.

Tests used:
Test in all cases: growth of human tumour cells (NCI), 48 h
[1] = system: KM12
[2] = system: SNB-19
[3] = system: HL-60
[4] = system: 786-0
[5] = system: IGROV-1
[6] = system: OVCAR-5
[7] = system: MOLT-4
[8] = system: SN12C
[9] = system: NCI-H522
[10] = system: COLO 205
[11] = system: NCI-H460
[12] = system: M14
[13] = system: CAKI-1
[14] = system: DU-145
[15] = system: SK-MEL-2
[16] = system: SW-620
[17] = system: MDA-MB-435
[18] = system: HCT-15
[19] = system: HCC 2998
[20] = system: RXF 393

Row | SMILES | GI50 [1] | GI50 [2] | GI50 [3] | GI50 [4] | GI50 [5] | GI50 [6] | GI50 [7] | GI50 [8] | GI50 [9] | GI50 [10] | GI50 [11] | GI50 [12] | GI50 [13] | GI50 [14] | GI50 [15] | GI50 [16] | GI50 [17] | GI50 [18] | GI50 [19] | GI50 [20]
1 | CN(C)CCCN1c2ccccc2CCc2ccc([N+](=O)[O-])cc21 | 18.1 µM (inactive) | 45.1 µM (inactive) | 19.8 µM (inactive) | 33 µM (inactive) | 14.9 µM (inactive) | 27.9 µM (inactive) | 33.3 µM (inactive) | 22.8 µM (inactive) | 17.5 µM (inactive) | 13.6 µM (inactive) | 19.5 µM (inactive) | 15.4 µM (inactive) | 40.6 µM (inactive) | 18.4 µM (inactive) | 20.3 µM (inactive) | 38.5 µM (inactive) | 17.9 µM (inactive) | 26.9 µM | 13.9 µM (inactive) | –
2 | COc1ccc(OC)c(C2CCCc3c2cnc2nc(N)nc(N)c32)c1 (stereo not drawn) | 0.0716 µM (active) | 0.0703 µM (active) | < 0.01 µM (active) | < 0.01 µM (active) | < 0.01 µM (active) | – | < 0.0168 µM (active) | < 0.01 µM (active) | < 0.0392 µM (active) | 0.352 µM (active) | < 0.01 µM (active) | < 0.01 µM (active) | 0.0982 µM (active) | 0.0132 µM (active) | > 100 µM (inactive) | – | < 0.01 µM (active) | < 0.01 µM | < 0.01 µM (active) | < 0.0129 µM (active)
3 | COc1ccc2nc(/C(N)=C\C#N)ccc2c1 | 52.1 µM (inactive) | > 100 µM (inactive) | 18 µM (inactive) | 34.7 µM (inactive) | 29.9 µM (inactive) | > 100 µM (inactive) | 23.9 µM (inactive) | 57.5 µM (inactive) | 37 µM (inactive) | 56 µM (inactive) | > 100 µM (inactive) | 42.1 µM (inactive) | > 100 µM (inactive) | 92.5 µM (inactive) | 49.5 µM (inactive) | > 100 µM (inactive) | 32.6 µM (inactive) | > 100 µM | – | 1.89 µM (inactive)
4 | O=[N+]([O-])c1ccc2nnnn2c1 | 23.1 µM (inactive) | 93.8 µM (inactive) | 16 µM (inactive) | 22.2 µM (inactive) | 34.3 µM (inactive) | 41.4 µM (inactive) | 2.62 µM (inactive) | 19.8 µM (inactive) | 3.39 µM (inactive) | 23.9 µM (inactive) | 31.6 µM (inactive) | 13.8 µM (inactive) | 17.6 µM (inactive) | 37.2 µM (inactive) | 23.3 µM (inactive) | 12.7 µM (inactive) | 11.5 µM (inactive) | 8.22 µM | – | > 100 µM (inactive)
5 | CN(NC(=O)CCCl)C1=NCCN1 | > 100 µM (inactive) | > 100 µM (inactive) | > 100 µM (inactive) | > 100 µM (inactive) | > 100 µM (inactive) | > 100 µM (inactive) | > 100 µM (inactive) | > 100 µM (inactive) | > 100 µM (inactive) | > 100 µM (inactive) | > 100 µM (inactive) | > 100 µM (inactive) | – | > 100 µM (inactive) | > 100 µM (inactive) | > 100 µM (inactive) | > 100 µM (inactive) | > 100 µM | > 100 µM (inactive) | > 100 µM (inactive)
6 | Brc1ccc(/N=N/c2ccc3ccccc3n2)cc1 | 62.2 µM (inactive) | 15.9 µM (inactive) | 18.7 µM (inactive) | 14.2 µM (inactive) | 21.4 µM (inactive) | 64.9 µM (inactive) | – | 40.4 µM (inactive) | 0.0372 µM (active) | > 100 µM (inactive) | 7.5 µM (inactive) | > 100 µM (inactive) | 14.1 µM (inactive) | > 100 µM (inactive) | > 100 µM (inactive) | 82.6 µM (inactive) | 64.3 µM (inactive) | 35.3 µM | – | 28.2 µM (inactive)
7 | Cc1n[nH]c(=O)c2c3c([nH]c12)-c1ccccc1C3 | > 100 µM (inactive) | > 100 µM (inactive) | – | > 100 µM (inactive) | 0.0716 µM (active) | > 100 µM (inactive) | 39.9 µM (inactive) | > 100 µM (inactive) | > 100 µM (inactive) | > 100 µM (inactive) | > 100 µM (inactive) | > 100 µM (inactive) | > 100 µM (inactive) | > 100 µM (inactive) | > 100 µM (inactive) | > 100 µM (inactive) | > 100 µM (inactive) | > 100 µM | – | 77.3 µM (inactive)
8 | O=S1(=O)OCCOS(=O)(=O)C1(F)Br | > 100 µM (inactive) | > 100 µM (inactive) | > 100 µM (inactive) | > 100 µM (inactive) | – | > 100 µM (inactive) | > 100 µM (inactive) | > 100 µM (inactive) | > 100 µM (inactive) | > 100 µM (inactive) | – | > 100 µM (inactive) | > 100 µM (inactive) | > 100 µM (inactive) | > 100 µM (inactive) | > 100 µM (inactive) | > 100 µM (inactive) | > 100 µM | > 100 µM (inactive) | > 100 µM (inactive)
